The source of these data is the Kinase Knowledgebase extract (Sharma et al. 2016).

Assay [1] has as its system MAPK14 (mouse). The assay can be described thus: Assessment of MAPK14 Kinase Activity in RAW 264.7 Cells.
Assay [2] has as its target MAPK14 (human) (UniProt Q16539). Description: Inhibition of MAPK14 Kinase Activity.

Chain of MAPK14 (human) (Q16539 whole entry, looked up): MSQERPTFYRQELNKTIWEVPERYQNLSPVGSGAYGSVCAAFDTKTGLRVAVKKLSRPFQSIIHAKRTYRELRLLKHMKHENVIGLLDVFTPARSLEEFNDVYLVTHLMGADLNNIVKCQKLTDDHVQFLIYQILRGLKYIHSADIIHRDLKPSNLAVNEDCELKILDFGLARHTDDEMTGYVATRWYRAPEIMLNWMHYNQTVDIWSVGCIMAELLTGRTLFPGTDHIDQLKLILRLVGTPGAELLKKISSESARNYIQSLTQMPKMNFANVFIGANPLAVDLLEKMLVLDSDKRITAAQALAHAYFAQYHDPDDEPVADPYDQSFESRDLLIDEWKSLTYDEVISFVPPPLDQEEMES

In general, IC50 refers to the concentration that inhibits the measured activity by half. A higher IC50 goes with weaker potency. In assay [1], `CC(C)(C)Cn1c(N)nc2ccc(-c3[nH]c(C(C)(C)C)nc3-c3ccc(F)cc3F)nc21` gave an IC50 of 20.7 nM. With `CC(C)(C)Cn1c(N)nc2ccc(-c3[nH]c(-c4c(Cl)cccc4Cl)nc3-c3ccc(F)cc3)nc21`, the results for the IC50 in assay [2] and in assay [1] were 3.6 nM and 23 nM, respectively. Molecule `CC(C)Cn1c(N)nc2ccc(-c3[nH]c(-c4c(Cl)cccc4Cl)nc3-c3ccc(F)cc3F)nc21` gave a 50% inhibitory concentration (IC50) in assay [1] of 31.2 nM. In the case of `CC(C)Cn1c(N)nc2ccc(-c3[nH]c(-c4c(Cl)cccc4Cl)nc3-c3ccccc3)nc21`, the results for the IC50 in assay [2] and in assay [1] were 3.7 nM and 64.7 nM, respectively.

For the molecule `CC(C)Cn1c(N)nc2ccc(-c3[nH]c(C(C)(C)C)nc3-c3ccccc3)nc21`, the IC50 turned out to be 5.1 nM in assay [2] and 66.4 nM in assay [1]. As to `CC(C)(C)Cn1c(N)nc2ccc(-c3[nH]c(-c4c(F)cccc4F)nc3-c3ccc(F)cc3)nc21`, the IC50 in assay [2] was determined as 7.2 nM. `CC(C)Cn1c(N)nc2ccc(-c3[nH]c(C(C)(C)C)nc3-c3ccc(F)cc3F)nc21` came in with an IC50 in assay [1] of 41.8 nM.

In the case of `CC(C)(C)Cn1c(N)nc2ccc(-c3[nH]c(-c4c(F)cccc4Cl)nc3-c3ccccc3)nc21`, in assay [1], the IC50 was 39 nM. As to `CC(C)(C)Cn1c(N)nc2ccc(-c3[nH]c(C(C)(C)C)nc3-c3ccc(F)cc3)nc21`, the IC50 in assay [2] came to 7 nM; in assay [1] it was 34.3 nM.
